In experiment [1] the target is T1, recombinant mouse PREP (rmPREP) (Mus musculus, UniProt Q9QUR6).
T1 construct: purchased R&S system (so in the source)
Description: PREP enzymatic activity assay. In kind it is biochemical. As to conditions: Z-Gly-Pro-AMC substrate. As for the experimental part:
7-Amino-4-Methylcoumarin (AMC) release was detected by measuring fluorescence at Ex/Em 380/460 nm using a Multifunction Microplate Reader (Synergy 4, Biotek). All measurements were carried out in triplicate.

Experiment [2] addresses T2, plasma FAP activity (Rattus norvegicus, UniProt A0A9K3Y732).
T2 construct: from tissue; host or cells: rat plasma after oral dosing
T2 sequence (A0A9K3Y732 1-761): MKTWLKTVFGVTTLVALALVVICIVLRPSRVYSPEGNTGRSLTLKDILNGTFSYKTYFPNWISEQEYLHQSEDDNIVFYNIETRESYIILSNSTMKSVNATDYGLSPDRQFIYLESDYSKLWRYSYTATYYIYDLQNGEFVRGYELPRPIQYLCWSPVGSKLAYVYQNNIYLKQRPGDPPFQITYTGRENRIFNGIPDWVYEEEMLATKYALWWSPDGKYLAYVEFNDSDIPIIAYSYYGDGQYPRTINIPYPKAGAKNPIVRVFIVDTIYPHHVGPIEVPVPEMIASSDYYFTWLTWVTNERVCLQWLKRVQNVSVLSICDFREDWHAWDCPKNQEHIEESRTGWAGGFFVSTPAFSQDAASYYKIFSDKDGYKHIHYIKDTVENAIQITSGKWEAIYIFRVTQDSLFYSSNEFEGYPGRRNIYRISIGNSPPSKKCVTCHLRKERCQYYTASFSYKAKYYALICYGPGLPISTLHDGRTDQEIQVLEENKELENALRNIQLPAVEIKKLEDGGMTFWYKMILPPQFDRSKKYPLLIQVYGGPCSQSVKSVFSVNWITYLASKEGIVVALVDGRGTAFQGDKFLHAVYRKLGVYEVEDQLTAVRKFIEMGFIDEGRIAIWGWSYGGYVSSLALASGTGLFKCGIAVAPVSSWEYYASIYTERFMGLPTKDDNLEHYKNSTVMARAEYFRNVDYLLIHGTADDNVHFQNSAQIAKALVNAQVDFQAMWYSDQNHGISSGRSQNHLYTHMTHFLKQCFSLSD
The experiment in a line: rhFGF21 administration in conjunction with FAP inhibition in vivo. Also noted: species or system Sprague Dawley rats. From the text: To determine if exemplary compounds of the invention can contribute to extend the half-life of hFGF21 in vivo, rats were orally dosed with vehicle or compound 13 (an exemplary compound) followed by sub-therapeutic dose of rhFGF21.
Male Sprague Dawley rats, approximately 7-8 weeks old (˜250 g), were obtained from the vivarium of Universidad Católica de Chile (Santiago, Chile). Animals were acclimated for a minimum period of 4 days upon arrival at the testing facility. At the day of study, two rats were anesthetized using sevoflurane and subjected to surgical implantation of catheters in carotid artery and jugular vein. Catheter plugs were fixed to the external ends of the catheters and kept patent using an anti-coagulant heparinized saline solution containing 25 U/mL Heparin (Fresenius Kabi, Laboratorio Sanderson) in 0.9% NaCl Apiroflex (Fresenius Kabi, Laboratorio Sanderson). After surgical recovery, rats were weighed and identified by marking the tail with numbers using a non-toxic permanent marker for designation of treatments described in Table 9.
Compound 13 (an exemplary compound) was formulated at 5 mg/ml in vehicle PEG200/dH2O (50/50, v/v) for oral administration and rhFGF21 was formulated in 0.9% NaCl Apiroflex at 100 μg/mL. […]

The target in experiment [3] is T3, recombinant mouse FAPα (rmFAPα) (Mus musculus, UniProt P97321).
T3 construct: purchased R&S system (so in the source)
T3 sequence (P97321 1-761): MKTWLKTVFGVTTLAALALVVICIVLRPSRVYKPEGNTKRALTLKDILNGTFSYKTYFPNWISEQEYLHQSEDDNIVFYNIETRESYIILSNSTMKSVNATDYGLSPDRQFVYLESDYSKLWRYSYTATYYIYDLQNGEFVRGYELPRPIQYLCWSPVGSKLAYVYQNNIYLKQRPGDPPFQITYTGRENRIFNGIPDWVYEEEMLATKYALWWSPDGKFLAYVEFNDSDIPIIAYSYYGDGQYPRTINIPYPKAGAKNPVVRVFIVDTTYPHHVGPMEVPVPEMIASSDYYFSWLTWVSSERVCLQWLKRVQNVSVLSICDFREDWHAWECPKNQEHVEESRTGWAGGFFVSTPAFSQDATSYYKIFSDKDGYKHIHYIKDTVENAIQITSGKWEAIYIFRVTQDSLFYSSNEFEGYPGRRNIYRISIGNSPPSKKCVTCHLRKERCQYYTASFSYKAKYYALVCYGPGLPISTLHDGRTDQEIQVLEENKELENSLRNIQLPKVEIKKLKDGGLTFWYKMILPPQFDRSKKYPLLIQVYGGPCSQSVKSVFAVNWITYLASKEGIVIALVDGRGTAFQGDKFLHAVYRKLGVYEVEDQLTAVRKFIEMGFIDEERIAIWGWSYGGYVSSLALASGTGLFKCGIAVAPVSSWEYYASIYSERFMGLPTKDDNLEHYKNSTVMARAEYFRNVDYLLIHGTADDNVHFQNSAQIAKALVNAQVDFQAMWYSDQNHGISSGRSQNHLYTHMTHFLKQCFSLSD
Description: FAPα enzymatic exopeptidase (dipeptidase) activity assay. The format is biochemical. As to conditions: exopeptidase, read-out: rmFAPα (exo IC50).

The source of these data is patent US11780821B2, “Inhibitors of fibroblast activation protein” (Praxis Biotech LLC, priority 2017, dated 2023).

Where two headings read alike, the source gives them in different places.

In general, IC50 refers to the point on the concentration scale where inhibition reaches its midpoint.

T1 sequence (Q9QUR6 whole entry): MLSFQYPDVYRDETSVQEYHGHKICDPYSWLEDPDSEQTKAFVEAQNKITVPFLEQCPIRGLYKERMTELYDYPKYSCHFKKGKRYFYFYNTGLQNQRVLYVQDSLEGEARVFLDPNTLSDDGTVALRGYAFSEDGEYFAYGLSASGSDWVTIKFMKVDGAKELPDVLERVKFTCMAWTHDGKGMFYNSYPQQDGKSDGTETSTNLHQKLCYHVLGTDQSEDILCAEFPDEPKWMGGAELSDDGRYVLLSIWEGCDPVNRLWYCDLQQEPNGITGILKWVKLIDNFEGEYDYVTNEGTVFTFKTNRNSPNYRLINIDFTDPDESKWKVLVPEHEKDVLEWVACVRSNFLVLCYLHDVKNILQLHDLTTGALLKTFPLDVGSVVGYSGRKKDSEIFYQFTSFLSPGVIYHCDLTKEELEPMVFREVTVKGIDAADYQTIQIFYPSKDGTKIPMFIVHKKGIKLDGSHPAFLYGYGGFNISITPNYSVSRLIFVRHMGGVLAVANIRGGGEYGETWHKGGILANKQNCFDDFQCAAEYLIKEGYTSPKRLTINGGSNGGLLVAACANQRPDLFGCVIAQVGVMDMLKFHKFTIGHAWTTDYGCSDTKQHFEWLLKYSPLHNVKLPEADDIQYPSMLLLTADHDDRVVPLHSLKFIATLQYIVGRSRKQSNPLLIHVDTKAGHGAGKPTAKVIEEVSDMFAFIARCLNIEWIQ

Regarding `N#C[C@@H]1CC(F)(F)CN1C(=O)CNC(=O)c1ccncc1-c1ccccc1` [Compound 13, (S)—N-(2-(2-cyano-4,4-difluoropyrrolidin-1-yl)-2-oxoethyl)-3-phenylisonicotinamide], the IC50 was above 10000 nM in experiment [1]; below 1000 nM in experiment [3] (Table 2, Z-Gly-Pro-AMC); below 1000 nM in experiment [3] (Table 3). Moreover, in experiment [2] (50 mg/kg PO pre-treatment, then rhFGF21 90 μg/Kg IV), the “amount of rhFGF21 detected through time in the plasma” value is reported as “increased”. For the same compound, in experiment [2] (oral single dose of 50 mg/kg), the “plasma FAP activity” value is “potently suppressed”.

As to `N#C[C@@H]1CC(F)(F)CN1C(=O)CNC(=O)c1ccncc1C1CC1` [Compound 24, (S)—N-(2-(2-cyano-4,4-difluoropyrrolidin-1-yl)-2-oxoethyl)-3-cyclopropylisonicotinamide], the concentration for half-maximal inhibition (IC50) in experiment [3] (Table 2, Z-Gly-Pro-AMC) is below 1000 nM; in experiment [3] (Table 3), below 1000 nM.

On to `N#C[C@@H]1CC(F)(F)CN1C(=O)CNC(=O)c1c[nH]c(=O)c2ccccc12` [Example 1, (S)—N-(2-(2-cyano-4,4-difluoropyrrolidin-1-yl)-2-oxoethyl)-1-oxo-1,2-dihydroisoquinoline-4-carboxamide], for which the IC50 in experiment [1] was 1000 to 10000 nM; in experiment [3] (Table 2, Z-Gly-Pro-AMC) it was below 1000 nM; in experiment [3] (Table 3) it was below 1000 nM.

On to `N#C[C@@H]1CC(F)(F)CN1C(=O)CNC(=O)c1c[nH]c(=O)c(-c2ccccc2)c1` [Compound 14, (S)—N-(2-(2-cyano-4,4-difluoropyrrolidin-1-yl)-2-oxoethyl)-6-oxo-5-phenyl-1,6-dihydropyridine-3-carboxamide], for which the 50% inhibitory concentration (IC50) in experiment [1] is above 10000 nM.

Consider `N#C[C@@H]1CC(F)(F)CN1C(=O)CNC(=O)c1ccncc1-c1ccc(F)cc1` [Compound 52, (S)—N-(2-(2-cyano-4,4-difluoropyrrolidin-1-yl)-2-oxoethyl)-3-(4-fluorophenyl)isonicotinamide], for which the IC50 in experiment [3] (Table 2, Z-Gly-Pro-AMC) was below 1000 nM; in experiment [3] (Table 3), below 1000 nM.

Turning to `N#C[C@@H]1CC(F)(F)CN1C(=O)CNC(=O)c1ccncc1N1CCOCC1` [Compound 88, N-[2-[(2S)-2-cyano-4,4-difluoro-pyrrolidin-1-yl]-2-oxo-ethyl]-3-morpholino-pyridine-4-carboxamide], the IC50 in experiment [3] (Table 3) was below 1000 nM.
